In US10064858B2, “Methods and compositions for treating bacterial infections with iron chelators” (THE UNITED STATES OF AMERICA, AS REPRESENTED BY THE …, priority 2011, dated 2018):
Entries after “also recorded” stand apart in the source; their conditions may differ.

Experiments:
EC 35218, EC 43888 = assay: Checkerboard assay, chelator with antibiotic (FIC); assay type: cell-based, E. coli
Description: (§1) Drug interactions were initially evaluated with the “checkerboard” microdilution design, which provided a matrix of all drug combinations assayed in terms of fractions of the previously determined MIC. The checkerboard microdilution design is described in R. J. Tallarida, “Drug Synergism: Its Detection and Applications,” Journal of Pharmacology and Experimental Therapeutics, 865-872 (2001); and in R. L. White, et al., (1996), supra. FIGS. 39A and 39B show the wellplates having different concentrations of iron chelator and antibiotic, as labeled along the x-axis and y-axis.
The checkerboard assay was used to asses other combinations of iron chelators and antibiotics. The fractional inhibitory concentration index (FIC), which was calculated as follows: FIC=(MIC A in combination/MIC A)+(MIC B in combination/MIC B). Interaction was defined as synergistic if the FIC was <1.0, preferably <0.5, no interaction if the FIC was >1.0 and <4.0, and antagonistic if the FIC was >4.0. […]
The assay was run against the multi-drug resistant bacterial species AB 19606, AB 17978, EC 35218, and EC 43888.

[1] = test system: Acinetobacter baumannii strain 5711 (AB5711); assay: Growth (OD600) of AB5711 in low iron media with chelators, with or without FeCl3; assay type: cell-based; settings: for bacterial growth (OD600 growth curves): AB5711, low iron media, 100 μM or 200 μM chelator added after 4 hr, 24 hr
Protocol: Acinetobacter baumannii strain 5711 (AB5711) was grown overnight in LB media and sub-cultured into low iron media. The tested iron chelators were deferoxamine (DFO), deferiprone (DFP), 2,2-dipyridyl, and VK28. The iron chelators were added after 4 hr of growth.
Bacterial growth was estimated by absorption at OD600 every 4 hr for 24 hr. Optical density (OD) at 600 nm (OD600) as measured by a spectrophotometer is a widely used technique known by one skilled in the art to estimate the total number of bacterial cells present in a broth culture (CFU/ml). The exact amount of OD produced by a culture will depend on the concentration of cells present, the species and strain of microbe present, the growth conditions used, and the wavelength of the light being transmitted. Thus, the relationship between OD and cell concentrations will depend on the specific strain and growth conditions studied. For example, the OD600 of 1 for E. coli is about 1×10^9 CFU/ml.
This example provides further evidence that the removal of iron is responsible for bacterial growth inhibition. A. baumannii isolate 5711 was grown in low iron M9 media supplemented with 0 μM, 10 μM, or 100 μM FeCl3 with and without the addition of 200 μM VK28 following 4 hr of growth. Growth was estimated by absorbance at 600 nm every 4 hr for 24 hr.
This example provides further evidence that the removal of iron is responsible for bacterial growth inhibition. A. baumannii isolate 5711 was grown in low iron M9 media supplemented with 0 μM, 10 μM, 100 μM, or 1000 μM FeCl3 with and without the addition of 50 μg/ml of VK28 following 4 hr of growth. Growth was estimated by absorbance at 600 nm after 20 hours.

AB5075 = assay: Time-kill assay in M9 minimal media; assay type: cell-based, A. baumannii; settings: 24 hours
Protocol: Reductions in colony forming units (CFU)/mL were determined over time (time-kill assay) after exposure to VK28 and deferiprone (DFP), the two iron chelators that performed best in MIC assays when compared to controls. To better represent the iron content found in the human body, MIC and time-kill assays were also determined in minimal media and tissue culture media. Time-Kill assays were performed as previously described in G. P. Neupane et al., “In vitro time-kill activities of ciprofloxacin alone and in combination with the iron chelator deferasirox against Vibrio vulnificus,” European Journal of Clinical Microbiology and Infectious Diseases, 407-410 (2010); and R. L. White, et al., “Comparison of Three Different In Vitro Methods of Detecting synergy: Time-Kill, Checkerboard, and E test,” Journal of Antimicrobial Agents and Chemotherapy, 1914-1918 (1996). Initial inocula, for example 1×10^6 CFU/mL or 1×10^7 CFU/mL were challenged with iron chelator with and/or without an antibiotic. Cells were allowed to grow in CAMHB at 37° C. for 24 hours. Time-kill results were analyzed by determining the change in log 10 numbers of CFU/ml at 0, 6, and 24 h, compared to counts at 0 h. Antimicrobials were considered bactericidal at the lowest concentration that reduced the size of the original inoculum by >3 log 10 CFU/ml (99.9%) over each of the time periods and were considered bacteriostatic if the inoculum's size was reduced by 0 to <3 log 10 CFU/ml.
The untreated sample (♦) had greater than 1×10^9 CFU/mL after 9 hours that was sustained at 24 hours.

PA PAO1, PA 27853 = assay: Checkerboard assay, chelator with antibiotic (FIC); assay type: cell-based, P. aeruginosa
Description: as §1
The checkerboard assay was used to asses other combinations of iron chelators and antibiotics. The fractional inhibitory concentration index (FIC), which was calculated as follows: FIC=(MIC A in combination/MIC A)+(MIC B in combination/MIC B). Interaction was defined as synergistic if the FIC was <1.0, preferably <0.5, no interaction if the FIC was >1.0 and <4.0, and antagonistic if the FIC was >4.0.
The assay was run against the multi-drug resistant bacterial species AB 19606, AB 17978, KP ndm, PA PAO1, PA 27853, EC 35718, and EC 43888. Blank spaces indicate concentrations not tested. […] Against the species PA PAO1 and PA 27853, all the antibiotics except for Ami.

AB5075 (MRSN959) = assay: Infected punch biopsy wound in mice, topical treatment; assay type: in vivo
Description: This example provides an in vivo evaluation of the effectiveness of VK28 in treating a bacterial infection. Mice were wounded with 6 mm punch biopsy and infected with AB5075 (MRSN959) and treated daily for 14 days with poloxamer F-127 gel alone as a control composition (FIG. 11A) or F-127 gel containing 5% VK28 (as a topical composition containing an iron chelator).

[2] = EC 35218, in combination with Cefotaxine
[3] = EC 35218, in combination with Colisitin
[4] = EC 35218, in combination with Doxycycline
[5] = EC 35218, in combination with Rifampin
[6] = EC 43888, in combination with Cefotaxine
[7] = EC 43888, in combination with Colisitin
[8] = EC 43888, in combination with Doxycycline
[9] = EC 43888, in combination with Rifampin

Structure (SMILES)	FIC (EC 35218, EC 43888; [2])	FIC (EC 35218, EC 43888; [3])	FIC (EC 35218, EC 43888; [4])	FIC (EC 35218, EC 43888; [5])	FIC (EC 35218, EC 43888; [6])	FIC (EC 35218, EC 43888; [7])	FIC (EC 35218, EC 43888; [8])	FIC (EC 35218, EC 43888; [9])	bacterial growth (OD600 growth curves) [1]	time-kill course of CFU/ml (AB5075; 0.5×MIC)	time-kill course of CFU/ml (AB5075; 1×MIC)	time-kill course of CFU/ml (AB5075; 2×MIC)	also measured
CNC(=O)c1c(O)c(=O)cc(C)n1C1CC1 [Apo6619, 1-cyclopropyl-3-hydroxy-6-methyl-4-oxo-1,4-dihydro-pyridine-2-carboxylic acid methylamide]	1.25	1.25	1.25	1.75	1.25	1.25	1.25	0.75	–	–	–	–	–
Cc1c(O)c(=O)ccn1C [ApoL1, 3-hydroxy-1,2-dimethyl-4(1H)-pyridone]	1.25	1.25	1.25	0.75	1.25	1.25	1.25	0.75	somewhat reduced bacterial growth	slight reduction in CFU/ml levels over the 24 hour period	slight reduction in CFU/ml levels over the 24 hour period	sustained level of CFU/ml obtained over the 24 hour period	FIC (PA PAO1, PA 27853; PA 27853, in combination with Amikacin): 1.25; FIC (PA PAO1, PA 27853; PA 27853, in combination with Cefotaxine): 0.75; FIC (PA PAO1, PA 27853; PA 27853, in combination with Colisitin): 0.75; FIC (PA PAO1, PA 27853; PA 27853, in combination with Doxycycline): 0.75; FIC (PA PAO1, PA 27853; PA 27853, in combination with Rifampin): 0.75; FIC (PA PAO1, PA 27853; PA PAO1, in combination with Cefotaxine): 0.75; FIC (PA PAO1, PA 27853; PA PAO1, in combination with Colisitin): 0.75; FIC (PA PAO1, PA 27853; PA PAO1, in combination with Doxycycline): 0.75; FIC (PA PAO1, PA 27853; PA PAO1, in combination with Rifampin): 0.75
OCCN1CCN(Cc2ccc(O)c3ncccc23)CC1 [VK28, 5-(4-(2-hydroxyethyl)piperazin-1-ylmethyl)-8-hydroxyquinoline]	–	–	–	–	–	–	–	–	reduced bacterial growth to a significant extent	slight inhibitory effect on the CFU/ml over the 24 hours	slight inhibitory effect on the CFU/ml over the 24 hours	slight inhibitory effect on the CFU/ml over the 24 hours	growth with FeCl3 added (absorbance at 600 nm after 20 hours) ([1]; 50 μg/ml of VK28 with 10, 100 or 1000 μM FeCl3, low iron M9 media): inhibition of growth can be rescued by the addition of FeCl3; growth with free iron added back ([1]; 200 μM VK28 with 10 μM or 100 μM FeCl3, low iron M9 media): bacteria are rescued from the VK28 growth inhibition; wound healing (AB5075 (MRSN959); F-127 gel containing 5% VK28, topical, daily for 14 days, vs gel alone (FIG. 11)): Healing scab and reduced wound size; also recorded: the wound treated with the control composition did not heal as well as the wound treated with the iron chelator composition; wound healing (AB5075 (MRSN959); composition containing 1% VK28, other mice): not particularly efficacious; wound healing (AB5075 (MRSN959); composition containing 5% VK28, other mice): efficacious in promoting wound healing
